Assay results reported in the NIST ThermoML archive (doi:10.1021/je400178k).
Numbers after ± are expanded uncertainties.

Assay: molar heat capacity at constant pressure; xn = mol fraction of the nth substance listed
Details: 101 kPa, Liquid, Small sample (50 mg) DSC

OCCN1CCOCC1 [4-morpholineethanol] + O
molar heat capacity at constant pressure [J/K/mol]
Details	x1 = 0.0998	x1 = 0.1985	x1 = 0.2979	x1 = 0.3969	x1 = 0.4952	x1 = 0.6017	x1 = 0.7031	x1 = 0.7657	x1 = 0.8977	x1 = 1
298.15 K	101 ± 2.5	120.8 ± 2.6	140.3 ± 2.8	159.5 ± 3	177.4 ± 3.2	195.6 ± 3.4	212.8 ± 3.6	223.5 ± 3.7	246.5 ± 4	263.9 ± 4.2
303.15 K	102.4 ± 2.5	123.6 ± 2.7	142.6 ± 2.8	162.4 ± 3	180 ± 3.2	198 ± 3.4	214.7 ± 3.6	226 ± 3.8	248.4 ± 4	265.3 ± 4.3
308.15 K	103.8 ± 2.5	125.7 ± 2.7	144.6 ± 2.9	165 ± 3.1	182.6 ± 3.3	200.3 ± 3.5	217.1 ± 3.7	228.3 ± 3.8	250.8 ± 4.1	267.1 ± 4.3
313.15 K	105.4 ± 2.5	127.9 ± 2.7	146.7 ± 2.9	167.8 ± 3.1	185.5 ± 3.3	203 ± 3.5	219.7 ± 3.7	230.8 ± 3.8	253.1 ± 4.1	269.2 ± 4.3
318.15 K	107.2 ± 2.5	130.4 ± 2.7	148.9 ± 2.9	171 ± 3.1	188.6 ± 3.3	205.9 ± 3.5	222.5 ± 3.7	233.3 ± 3.9	255 ± 4.1	270.8 ± 4.3
323.15 K	109 ± 2.5	133 ± 2.7	152.3 ± 2.9	174.4 ± 3.2	191.8 ± 3.4	208.7 ± 3.6	225.5 ± 3.8	235.8 ± 3.9	257 ± 4.1	272.6 ± 4.3
328.15 K	111.4 ± 2.5	136 ± 2.8	156.3 ± 3	178.4 ± 3.2	195.5 ± 3.4	211.8 ± 3.6	228.7 ± 3.8	238.6 ± 3.9	259.1 ± 4.2	274.3 ± 4.4
333.15 K	114.2 ± 2.6	139.3 ± 2.8	160.3 ± 3	183 ± 3.3	199.7 ± 3.5	215.6 ± 3.6	232.5 ± 3.8	242.5 ± 4	261.7 ± 4.2	276.2 ± 4.4
338.15 K	117.4 ± 2.6	143.2 ± 2.8	165 ± 3.1	188.6 ± 3.3	204.6 ± 3.5	220.1 ± 3.7	237 ± 3.9	246.3 ± 4	264.7 ± 4.2	278.7 ± 4.4
343.15 K	121.1 ± 2.6	147.7 ± 2.9	170.6 ± 3.1	194.6 ± 3.4	209.9 ± 3.6	225.4 ± 3.8	241.6 ± 4	250.3 ± 4.1	267.9 ± 4.3	281 ± 4.4
348.15 K	125.9 ± 2.7	152.9 ± 2.9	178.7 ± 3.2	201.6 ± 3.5	215.9 ± 3.7	231 ± 3.8	246.6 ± 4	254.8 ± 4.1	271.2 ± 4.3	283.2 ± 4.5
353.15 K	131.9 ± 2.7	159.5 ± 3	187 ± 3.3	209.9 ± 3.6	222.5 ± 3.7	236.4 ± 3.9	252.2 ± 4.1	259.4 ± 4.2	274.8 ± 4.4	284.9 ± 4.5

CN1CCN(C)CC1 [1,4-dimethylpiperazine] + O
molar heat capacity at constant pressure [J/K/mol]
Details	x1 = 0.1	x1 = 0.2007	x1 = 0.2992	x1 = 0.4011	x1 = 0.5	x1 = 0.6015	x1 = 0.6993	x1 = 0.799	x1 = 0.8983	x1 = 1
298.15 K	108.6 ± 2.5	122.7 ± 2.6	135.3 ± 2.8	148.5 ± 2.9	159.8 ± 3	171.1 ± 3.1	183.7 ± 3.3	195.4 ± 3.4	206.1 ± 3.5	216.5 ± 3.7
303.15 K	110.2 ± 2.5	124.5 ± 2.7	137.6 ± 2.8	150.9 ± 2.9	162.6 ± 3	174.8 ± 3.2	188.1 ± 3.3	199.9 ± 3.5	211.3 ± 3.6	221.7 ± 3.7
308.15 K	111.1 ± 2.5	125.9 ± 2.7	139.7 ± 2.8	152.3 ± 2.9	164.9 ± 3.1	176.4 ± 3.2	189.9 ± 3.3	202.1 ± 3.5	212.6 ± 3.6	222.1 ± 3.7
313.15 K	112 ± 2.6	127.8 ± 2.7	141.9 ± 2.8	154.4 ± 3	166.7 ± 3.1	178.5 ± 3.2	192.3 ± 3.4	204.4 ± 3.5	214.6 ± 3.6	223.4 ± 3.7
318.15 K	113 ± 2.6	129.8 ± 2.7	144.1 ± 2.9	156.5 ± 3	169 ± 3.1	180.6 ± 3.2	194.4 ± 3.4	206.7 ± 3.5	216.5 ± 3.7	224.6 ± 3.8
323.15 K	114.3 ± 2.6	132.1 ± 2.7	146.3 ± 2.9	158.2 ± 3	171 ± 3.1	182.5 ± 3.3	196.6 ± 3.4	208.8 ± 3.6	218 ± 3.7	225.3 ± 3.8
328.15 K	115.5 ± 2.6	134.5 ± 2.8	148.7 ± 2.9	160.6 ± 3	172.7 ± 3.2	184.8 ± 3.3	198.7 ± 3.4	210.8 ± 3.6	219.8 ± 3.7	225.7 ± 3.8
333.15 K	116.4 ± 2.6	136.4 ± 2.8	151.5 ± 2.9	163.3 ± 3.1	174.8 ± 3.2	186.4 ± 3.3	200.6 ± 3.5	213.1 ± 3.6	221.6 ± 3.7	227.5 ± 3.8
338.15 K	117.4 ± 2.6	137.7 ± 2.8	153.5 ± 3	165.8 ± 3.1	177.1 ± 3.2	188.5 ± 3.3	202.8 ± 3.5	215.2 ± 3.6	223.5 ± 3.7	228.5 ± 3.8
343.15 K	118.4 ± 2.6	139.3 ± 2.8	156.2 ± 3	169 ± 3.1	179.7 ± 3.2	191.4 ± 3.4	205.4 ± 3.5	217.7 ± 3.7	225.5 ± 3.8	229.6 ± 3.8
348.15 K	119.5 ± 2.6	141 ± 2.8	157.8 ± 3	171.3 ± 3.1	182.6 ± 3.3	194.4 ± 3.4	208.5 ± 3.6	220.6 ± 3.7	227.9 ± 3.8	231.7 ± 3.8
353.15 K	120.8 ± 2.6	142.4 ± 2.8	159.4 ± 3	173.6 ± 3.2	185.7 ± 3.3	198.7 ± 3.4	213.5 ± 3.6	225.5 ± 3.8	233.5 ± 3.9	235.9 ± 3.9
